Values after ≈ are worked out from the molar mass of the structure shown. Like-named read-outs stand apart in the source and are kept apart here.
Assays:
Escherichia coli 76-2 = test: MIC, agar dilution method, pH 7.2; format: cell-based
Experimental: (§1) Measurement was carried out according to the agar dilution method, using a medium of pH 8.0, or the Japanese Antibiotic Medicament Standard, using a medium of pH 7.2 Units are in mcg/ml.
(§2) **1: gentamicin, producing adenylsynthetase.

[1] = tested on: Klebsiella pneumoniae 3020 Y-60; test: MIC, agar dilution method, pH 7.2; format: cell-based; conditions: 3020Y60; pH 7.2; Klebsiella pneumoniae 3020 Y-60; 1**: gentamicin, producing adenylsynthetase; read-out: Minimum inhibition concentration (MIC)
Experimental: as §1, §2

[2] = tested on: Escherichia coli 57R/W677; test: MIC, agar dilution method, pH 7.2; format: cell-based; conditions: 57R/W677, pH 7.2, read-out: Minimum inhibition concentration (MIC)
Experimental: as §1, §2

[3] = tested on: Escherichia coli R12 Z-338; test: MIC, agar dilution method, pH 7.2; format: cell-based; conditions: R12Z338, pH 7.2, E. coli R12 Z-338, 1**: gentamicin, producing adenylsynthetase, read-out: Minimum inhibition concentration (MIC)
Experimental: as §1, §2

[4] = tested on: Pseudomonas aeruginosa R4 KY8511; test: MIC, agar dilution method, pH 7.2; format: cell-based; conditions: R4KY8511, pH 7.2, P. aeruginosa R4 KY8511, 4**: gentamicin, producing acetyltransferase type I, read-out: Minimum inhibition concentration (MIC)
Experimental: as §1
(§3) 4: gentamicin, producing acetyltransferase type I.

[5] = tested on: Escherichia coli R19 KY8348; test: MIC, agar dilution method, pH 7.2; format: cell-based; conditions: R19KY8348, pH 7.2, E. coli R19 KY8348, 4**: gentamicin, producing acetyltransferase type I, read-out: Minimum inhibition concentration (MIC)
Experimental: as §1, §3

Proteus vulgaris JJ = test: MIC, agar dilution method, pH 7.2; format: cell-based
Experimental: as §1

[6] = tested on: Pseudomonas aeruginosa UCLA 4184; test: MIC, agar dilution method, pH 7.2; format: cell-based; conditions: UCLA4184; pH 7.2; Pseudomonas aeruginosa UCLA 4184; read-out: Minimum inhibition concentration (MIC)
Experimental: as §1

[7] = tested on: Salmonella enteritidis G-14; test: MIC, agar dilution method, pH 7.2; format: cell-based; conditions: Salmonella enterica
Experimental: as §1

[8] = tested on: Staphylococcus aureus Smith (A); test: MIC, agar dilution method, pH 7.2; format: cell-based; conditions: pH 7.2; Staphylococcus aureus Smith (A); read-out: Minimum inhibition concentration (MIC)
Experimental: as §1

[9] = tested on: Klebsiella pneumoniae KY4274; test: MIC, agar dilution method, pH 7.2; format: cell-based
Experimental: as §1

Shigella sonnei ATCC9290 = test: MIC, agar dilution method, pH 7.2; format: cell-based; conditions: read-out: Minimum inhibition concentration (MIC)
Experimental: as §1

[10] = tested on: Eschericihia coli GN2411-5; test: MIC, agar dilution method, pH 7.2; format: cell-based; conditions: Escherichia coli
Experimental: as §1

[11] = tested on: Staphylococcus aureus 209-P; test: MIC, agar dilution method, pH 7.2; format: cell-based; conditions: pH 7.2; Staphylococcus aureus 209-P; read-out: Minimum inhibition concentration (MIC)
Experimental: as §1

Escherichia coli NIHTC-2 = test: MIC, agar dilution method, pH 7.2; format: cell-based
Experimental: as §1

[12] = tested on: Pseudomonas aeruginosa BMH# 1; test: MIC, agar dilution method, pH 7.2; format: cell-based
Experimental: as §1

Eschericihia coli 3100 = test: MIC, agar dilution method, pH 7.2; format: cell-based, Escherichia coli; conditions: Escherichia coli; pH 7.2; E. coli 3100; read-out: Minimum inhibition concentration (MIC)
Experimental: as §1

Bacillus subtilis KY4273 = test: MIC, agar dilution method, pH 8.0; format: cell-based; conditions: pH 8.0; Bacillus subtilis KY4273; read-out: Minimum inhibition concentration (MIC), BS
Experimental: as §1
B.S.: Bacillus subtilis KY4273

[13] = tested on: Escherichia coli R18 KY8321; test: MIC, agar dilution method, pH 7.2; format: cell-based; conditions: R18KY8321, E. coli R18 KY8321, 2**: gentamicin, producing adenylsynthetase and neomycin phosphotransferase type II, read-out: Minimum inhibition concentration (MIC)
Experimental: as §1
2: gentamicin, producing adenylsynthetase and neomycin phosphotransferase

[14] = tested on: Staphylococcus a ureus 226; test: MIC, agar dilution method, pH 7.2; format: cell-based, Staphylococcus aureus; conditions: pH 7.2; Staphylococcus aureus 226; read-out: Minimum inhibition concentration (MIC)
Experimental: as §1

[15] = tested on: Eschericia coli KY4271 ATCC26; test: MIC, agar dilution method, pH 8.0; format: cell-based; conditions: Escherichia coli, ATCC26; pH 8.0; E. coli KY4271; read-out: Minimum inhibition concentration (MIC), EC
Experimental: as §1
E.C.: Eschericia coli KY4271 ATCC26

[16] = tested on: Klebsiella pneumoniae KY4275 ATCC10031; test: MIC, agar dilution method, pH 8.0; format: cell-based; conditions: ATCC10031; pH 8.0; Klebsiella pneumoniae KY4275; read-out: Minimum inhibition concentration (MIC), KP
Experimental: as §1
K.P.: Klebsiella pneumoniae KY4275 ATCC10031.

[17] = tested on: Pseudomonas aeruginosa R9 KY8516; test: MIC, agar dilution method, pH 7.2; format: cell-based; conditions: R9KY8516, pH 7.2, P. aeruginosa R9 KY8516, 3**: kanamycin, producing acetyltransferase, read-out: Minimum inhibition concentration (MIC)
Experimental: as §1
(§4) 3: kanamycin, producing acetyltransferase.

Serratia marcescens 1065 = test: MIC, agar dilution method, pH 7.2; format: cell-based
Experimental: as §1, §4

[18] = tested on: Escherichia coli R17 Z343; test: MIC, agar dilution method, pH 7.2; format: cell-based
Experimental: as §1, §4

[19] = tested on: Escherichia coli R20 KY8349; test: MIC, agar dilution method, pH 7.2; format: cell-based
Experimental: as §1
5: neomycin, producing phosphotransferase type I.

[20] = tested on: Staphylococcus aureus KY4279 ATCC6538P; test: MIC, agar dilution method, pH 8.0; format: cell-based; conditions: pH 8.0, Staphylococcus aureus KY4279, read-out: Minimum inhibition concentration (MIC), SA
Experimental: as §1
S.A.: Staphylococcus aureus KY4279 ATCC6538P

[21] = tested on: Proteus vulgaris KY4277 ATCC6897; test: MIC, agar dilution method, pH 8.0; format: cell-based; conditions: ATCC6897; pH 8.0; Proteus vulgaris KY4277; read-out: Minimum inhibition concentration (MIC), PV
Experimental: as §1

[22] = tested on: Shigella sonnei KY4281 ATCC9290; test: MIC, agar dilution method, pH 8.0; format: cell-based; conditions: ATCC9290; pH 8.0; Shigella sonnei KY4281; read-out: Minimum inhibition concentration (MIC), SS
Experimental: as §1

SMILES: CO[C@H]1[C@@H](O)[C@H](N)[C@@H](O[C@H]2O[C@H]([C@H](C)N)CC[C@H]2N)[C@H](O)[C@@H]1N(C)C(=O)CNC(N)=O [Compound 3, 4-N-hydantoylfortimicin B, reference compound]
- MIC (Escherichia coli 76-2; Escherichia coli, 762, pH 7.2, E. coli 76-2, 1**: gentamicin, producing adenylsynthetase, read-out: Minimum inhibition concentration (MIC)): 12.5 µg/mL (≈ 27.9 µM)
- MIC [1]: 100 µg/mL (≈ 223 µM)
- MIC [2]: 25 µg/mL (≈ 55.7 µM)
- MIC [3]: 6.25 µg/mL (≈ 13.9 µM)
- MIC [4]: > 100 µg/mL
- MIC [5]: > 100 µg/mL
- MIC (Proteus vulgaris JJ; pH 7.2, Proteus vulgaris JJ, read-out: Minimum inhibition concentration (MIC)): 12.5 µg/mL (≈ 27.9 µM)
- MIC [6]: 50 µg/mL (≈ 111 µM)
- MIC ([7]; pH 7.2, Salmonella enteritidis G-14, read-out: Minimum inhibition concentration (MIC)): 25 µg/mL (≈ 55.7 µM)
- MIC [8]: 6.25 µg/mL (≈ 13.9 µM)
- MIC ([9]; pH 7.2, Klebsiella pneumoniae KY4274, read-out: Minimum inhibition concentration (MIC)): 12.5 µg/mL (≈ 27.9 µM)
- MIC (Shigella sonnei ATCC9290): 25 µg/mL (≈ 55.7 µM)
- MIC ([10]; pH 7.2, E. coli GN2411-5, read-out: Minimum inhibition concentration (MIC)): 25 µg/mL (≈ 55.7 µM)
- MIC [11]: 3.12 µg/mL (≈ 6.96 µM)
- MIC (Escherichia coli NIHTC-2; NIHTC2, pH 7.2, Escherichia coli NIHTC-2, read-out: Minimum inhibition concentration (MIC)): 12.5 µg/mL (≈ 27.9 µM)
- MIC ([12]; pH 7.2, Pseudomonas aeruginosa BMH# 1, read-out: Minimum inhibition concentration (MIC)): 100 µg/mL (≈ 223 µM)
- MIC (Eschericihia coli 3100): 12.5 µg/mL (≈ 27.9 µM)
- MIC (Bacillus subtilis KY4273): 0.32 µg/mL (≈ 0.713 µM)
- MIC [13]: 6.25 µg/mL (≈ 13.9 µM)
- MIC [14]: 6.25 µg/mL (≈ 13.9 µM)
- MIC [15]: 0.08 µg/mL (≈ 0.178 µM)
- MIC [16]: 0.63 µg/mL (≈ 1.4 µM)
- MIC [17]: > 100 µg/mL
- MIC (Serratia marcescens 1065; pH 7.2, Serratia marcescens 1065, 3**: kanamycin, producing acetyltransferase, read-out: Minimum inhibition concentration (MIC)): 50 µg/mL (≈ 111 µM)
- MIC ([18]; R17Z343, pH 7.2, E. coli R17 Z343, 3**: kanamycin, producing acetyltransferase, read-out: Minimum inhibition concentration (MIC)): 3.12 µg/mL (≈ 6.96 µM)
- MIC ([19]; R20KY8349, pH 7.2, E. coli R20 KY8349, 5**: neomycin, producing phosphotransferase type I, read-out: Minimum inhibition concentration (MIC)): 12.5 µg/mL (≈ 27.9 µM)
- MIC [20]: 0.16 µg/mL (≈ 0.357 µM)
- MIC [21]: 0.63 µg/mL (≈ 1.4 µM)
- MIC [22]: 1.25 µg/mL (≈ 2.79 µM)

SMILES: CO[C@H]1[C@@H](O)[C@H](N)[C@@H](O[C@H]2O[C@H]([C@H](C)N)CC[C@H]2N)[C@H](O)[C@@H]1N(C)C[C@@H](O)CCN [Compound 27, 4-N-[(S)-4-amino-2-hydroxybutyl]fortimicin B]
- MIC (Escherichia coli 76-2; Escherichia coli, 762, pH 7.2, read-out: Minimum inhibition concentration (MIC)): 6.25 µg/mL (≈ 14.3 µM)
- MIC [1]: 12.5 µg/mL (≈ 28.7 µM)
- MIC [2]: 12.5 µg/mL (≈ 28.7 µM)
- MIC [3]: 12.5 µg/mL (≈ 28.7 µM)
- MIC [4]: > 100 µg/mL
- MIC [5]: > 100 µg/mL
- MIC (Proteus vulgaris JJ; Proteus vulgaris, pH 7.2, read-out: Minimum inhibition concentration (MIC)): 3.12 µg/mL (≈ 7.16 µM)
- MIC [6]: 25 µg/mL (≈ 57.4 µM)
- MIC ([7]; ENTERITIDIS, pH 7.2, read-out: Minimum inhibition concentration (MIC)): 3.12 µg/mL (≈ 7.16 µM)
- MIC [8]: 0.4 µg/mL (≈ 0.918 µM)
- MIC ([9]; Klebsiella pneumoniae, KY4274, pH 7.2, read-out: Minimum inhibition concentration (MIC)): 3.12 µg/mL (≈ 7.16 µM)
- MIC (Shigella sonnei ATCC9290): 3.12 µg/mL (≈ 7.16 µM)
- MIC ([10]; GN2411, pH 7.2, read-out: Minimum inhibition concentration (MIC)): 6.25 µg/mL (≈ 14.3 µM)
- MIC [11]: 0.4 µg/mL (≈ 0.918 µM)
- MIC (Escherichia coli NIHTC-2; Escherichia coli, NIHTC2, pH 7.2, read-out: Minimum inhibition concentration (MIC)): 3.12 µg/mL (≈ 7.16 µM)
- MIC ([12]; Pseudomonas aeruginosa, pH 7.2, read-out: Minimum inhibition concentration (MIC)): 6.25 µg/mL (≈ 14.3 µM)
- MIC (Eschericihia coli 3100): 12.5 µg/mL (≈ 28.7 µM)
- MIC (Bacillus subtilis KY4273): 0.04 µg/mL (≈ 0.0918 µM)
- MIC [13]: 6.25 µg/mL (≈ 14.3 µM)
- MIC [14]: 0.4 µg/mL (≈ 0.918 µM)
- MIC [15]: 0.16 µg/mL (≈ 0.367 µM)
- MIC [16]: 0.32 µg/mL (≈ 0.735 µM)
- MIC [17]: 25 µg/mL (≈ 57.4 µM)
- MIC (Serratia marcescens 1065; Serratia marcescens, 1065, pH 7.2, read-out: Minimum inhibition concentration (MIC)): 6.25 µg/mL (≈ 14.3 µM)
- MIC ([18]; R17Z343, pH 7.2, read-out: Minimum inhibition concentration (MIC)): 3.12 µg/mL (≈ 7.16 µM)
- MIC ([19]; R20KY8349, pH 7.2, read-out: Minimum inhibition concentration (MIC)): 1.25 µg/mL (≈ 2.87 µM)
- MIC [20]: 0.04 µg/mL (≈ 0.0918 µM)
- MIC [21]: 0.32 µg/mL (≈ 0.735 µM)
- MIC [22]: 1.25 µg/mL (≈ 2.87 µM)

— patent US4220755A, “Fortimicin B derivatives and process for production thereof” (Abbott Laboratories, priority 1976, dated 1980)
